Common to all, as to format: biochemical
One assay addresses T1, AKT1 (Homo sapiens, UniProt P31749).
T1 construct: purchased SignalChem
The experiment in a line: AKT Kinase Assay (IMAP fluorescent polarisation) vs AKT1. Summed up: (§1)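 Phosphorylation of FAM-Crosstide detected by IMAP binding and fluorescence polarisation (485/528 nm), with IC50 fitted from % inhibition versus vehicle. Compound was incubated 45 min with enzyme, then reacted 1 h at room temperature with ATP and peptide in Tris/MgCl2/DTT buffer. Dose response had fourteen half-log points.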

For the next assay, the target named is T2, AKT2 (Homo sapiens, UniProt P31751).
T2 construct: purchased SignalChem
T2 sequence (P31751 whole entry): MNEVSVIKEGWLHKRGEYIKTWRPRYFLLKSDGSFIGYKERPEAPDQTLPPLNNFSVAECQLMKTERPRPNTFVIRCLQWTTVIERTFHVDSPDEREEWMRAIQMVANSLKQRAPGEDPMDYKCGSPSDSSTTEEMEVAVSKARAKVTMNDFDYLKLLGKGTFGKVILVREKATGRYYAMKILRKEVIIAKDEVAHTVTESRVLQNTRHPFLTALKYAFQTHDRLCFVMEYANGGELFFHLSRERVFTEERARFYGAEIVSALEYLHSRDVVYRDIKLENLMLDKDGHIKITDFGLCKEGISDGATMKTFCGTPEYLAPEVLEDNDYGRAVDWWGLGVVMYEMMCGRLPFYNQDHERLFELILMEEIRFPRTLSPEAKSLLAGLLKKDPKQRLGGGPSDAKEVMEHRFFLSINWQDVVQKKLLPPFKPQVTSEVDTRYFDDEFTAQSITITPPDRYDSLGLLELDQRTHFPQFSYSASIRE
The assay is described as follows: AKT Kinase Assay (IMAP fluorescent polarisation) vs AKT2. Summed up: as §1

A further assay deals with T3, AKT3 (Homo sapiens, UniProt Q9Y243).
T3 construct: purchased SignalChem
T3 sequence (Q9Y243 whole entry): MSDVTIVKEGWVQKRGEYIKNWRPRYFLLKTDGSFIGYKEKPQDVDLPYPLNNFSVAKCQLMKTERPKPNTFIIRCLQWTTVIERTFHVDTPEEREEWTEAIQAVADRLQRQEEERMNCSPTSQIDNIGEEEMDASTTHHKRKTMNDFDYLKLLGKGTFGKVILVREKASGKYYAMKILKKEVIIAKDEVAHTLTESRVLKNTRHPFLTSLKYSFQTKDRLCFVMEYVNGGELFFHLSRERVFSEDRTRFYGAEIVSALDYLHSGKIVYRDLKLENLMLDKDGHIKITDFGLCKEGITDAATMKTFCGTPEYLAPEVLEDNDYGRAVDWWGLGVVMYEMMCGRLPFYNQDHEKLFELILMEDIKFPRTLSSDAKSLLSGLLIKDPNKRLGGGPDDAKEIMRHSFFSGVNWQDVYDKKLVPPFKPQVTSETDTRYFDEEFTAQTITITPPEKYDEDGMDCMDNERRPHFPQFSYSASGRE
The assay is described as follows: AKT Kinase Assay (IMAP fluorescent polarisation) vs AKT3. Put shortly: as §1

Consider 26 compounds from US9221838B2, “Inhibitors of AKT activity” (ALMAC DISCOVERY LIMITED, priority 2009, dated 2015).

Molecules are shown by their SMILES.

As usually defined, the IC50 is the concentration that inhibits the measured activity by half.

T1 sequence (P31749 whole entry): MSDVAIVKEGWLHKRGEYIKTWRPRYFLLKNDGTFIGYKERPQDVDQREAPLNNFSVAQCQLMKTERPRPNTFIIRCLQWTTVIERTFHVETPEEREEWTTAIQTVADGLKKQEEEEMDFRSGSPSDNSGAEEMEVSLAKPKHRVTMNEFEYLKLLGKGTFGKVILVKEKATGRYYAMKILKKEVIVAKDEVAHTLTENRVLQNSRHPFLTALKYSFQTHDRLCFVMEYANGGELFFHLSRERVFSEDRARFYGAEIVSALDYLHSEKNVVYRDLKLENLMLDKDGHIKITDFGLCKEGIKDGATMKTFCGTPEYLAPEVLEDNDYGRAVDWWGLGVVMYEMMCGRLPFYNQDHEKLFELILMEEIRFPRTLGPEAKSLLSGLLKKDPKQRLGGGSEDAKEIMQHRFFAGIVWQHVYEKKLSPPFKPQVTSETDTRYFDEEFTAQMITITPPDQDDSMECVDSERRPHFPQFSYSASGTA

Turning to `CC(CO)(CO)CN1C(=O)COc2nc(-c3ccc(C4(N)CCC4)cc3)c(-c3ccccc3)cc21` [Example 106, 6-(4-(1-aminocyclobutyl)phenyl)-1-(3-hydroxy-2-(hydroxymethyl)-2-methylpropyl)-7-phenyl-1H-pyrido[2,3-b][1,4]oxazin-2(3H)-one], the IC50 lay in the range of 100 to 1000 nM on AKT1, 100 to 1000 nM on AKT2 and 1000 to 10000 nM at AKT3.
In the case of `NCc1ccc(-c2nc3c(cc2-c2ccccc2)N(CC(F)(F)F)C(=O)CO3)cc1` [Example 146, 6-(4-(Aminomethyl)phenyl)-7-phenyl-1-(2,2,2-trifluoroethyl)-1H-pyrido[2,3-b][1,4]oxazin-2(3H)-one], the IC50 at AKT1 is 1000 to 10000 nM; on AKT2 it was 100 to 1000 nM; on AKT3 it was over 10000 nM.
In the same order, the values of `C[C@]1(O)C[C@@](N)(c2ccc(-c3nc4c(cc3-c3ccccc3)-n3c(nnc3C(F)F)CO4)cc2)C1` [Example 128, (1r,3r)-3-amino-3-(4-(1-(difluoromethyl)-8-phenyl-4H-pyrido[2,3-b][1,2,4]triazolo[4,3-d][1,4]oxazin-7-0)phenyl)-1-methylcyclobutanol] are at most 100 nM, 100 to 1000 nM and 100 to 1000 nM.
On to `NC1(c2ccc(-c3nc4c(cc3-c3ccccc3)NC(=O)C(CCO)O4)cc2)CCC1` (stereo not drawn) [Example 71, 6-(4-(1-aminocyclobutyl)phenyl)-3-(2-hydroxyethyl)-7-phenyl-1H-pyrido[2,3-b][1,4]oxazin-2(3H)-one], for which the IC50 was in the range of 100 to 1000 nM at AKT1, 1000 to 10000 nM on AKT2 and 1000 to 10000 nM on AKT3.
Regarding `NC1(c2ccc(-c3nc4c(cc3-c3ccccc3)-n3c(nnc3-c3ccncc3)CO4)cc2)CCC1` [Example 123, 1-(4-(8-phenyl-1-(pyridin-4-yl)-4H-pyrido[2,3-b][1,2,4]triazolo[4,3-d][1,4]oxazin-7-yl)phenyl)cyclobutanamine], the IC50 on AKT1 was at most 100 nM; on AKT2, 1000 to 10000 nM; on AKT3 it was 1000 to 10000 nM.
Consider `NC1(c2ccc(-c3nc4c(cc3-c3ccccc3)NC(=O)CO4)cc2)CCC1` [Example 30, 6-(4-(1-aminocyclobutyl)phenyl)-7-phenyl-1H-pyrido[2,3-b][1,4]oxazin-2(3H)-one], for which the IC50 at AKT1, on AKT2 and at AKT3 was 1000 to 10000 nM in each case.
With `NC(=O)CN1CCOc2nc(-c3ccc(C4(N)CCC4)cc3)c(-c3ccccc3)cc21` [Example 44, 2-(6-(4-(1-aminocyclobutyl)phenyl)-7-phenyl-2,3-dihydro-1H-pyrido[2,3-b][1,4]oxazin-1-yl)acetamide], the IC50 on AKT1 was 1000 to 10000 nM; on AKT2, 1000 to 10000 nM; on AKT3 it was over 10000 nM.
On to `NC1(c2ccc(-c3nc4c(cc3-c3ccccc3)N(CC3CCC3)C(=O)CO4)cc2)CCC1` [Example 48, 6-(4-(1-aminocyclobutyl)phenyl)-1-(cyclobutylmethyl)-7-phenyl-1H-pyrido[2,3-b][1,4]oxazin-2(3H)-one], for which the figures for the IC50 on AKT1, at AKT2 and on AKT3 were 100 to 1000 nM, at most 100 nM and 100 to 1000 nM, respectively.
As to `CC1(C)Cc2nc(-c3ccc(C4(N)CCC4)cc3)c(-c3ccccc3)cc2-c2n[nH]cc21` [Example 19, 1-(4-(4,4-dimethyl-8-phenyl-4,5-dihydro-2H-pyrazolo[3,4-f]quinolin-7-yl)phenyl)cyclobutanamine], the IC50 on AKT1 is 100 to 1000 nM; at AKT2 it was 100 to 1000 nM; at AKT3, over 10000 nM.
`N#CCN1CCOc2nc(-c3ccc(C4(N)CCC4)cc3)c(-c3ccccc3)cc21` [Example 43, 2-(6-(4-(1-aminocyclobutyl)phenyl)-7-phenyl-2,3-dihydro-1H-pyrido[2,3-b][1,4]oxazin-1-yl)acetonitrile]: the IC50 at AKT1 is 100 to 1000 nM; at AKT2, at most 100 nM; at AKT3, over 10000 nM.
Regarding `CN1C(=O)COc2nc(-c3ccc([C@]4(N)C[C@@](C)(O)C4)cc3)c(-c3ccccc3)cc21` [Example 134, 6-(4((1s,3s)-1-amino-3-hydroxy-3-methylcyclobutyl)phenyl)-1-methyl-7-phenyl-1H-pyrido[2,3-b][1,4]oxazin-2(3H)-one], the IC50 on AKT1 is 100 to 1000 nM; on AKT2, 1000 to 10000 nM; at AKT3 it was over 10000 nM.
The matching figures for `NC1(c2ccc(-c3nc4c(cc3-c3ccccc3)N(CCO)C(=O)CO4)cc2)CCC1` [Example 68, 6-(4-(1-aminocyclobutyl)phenyl)-1-(2-hydroxyethyl)-7-phenyl-1H-pyrido[2,3-b][1,4]oxazin-2(3H)-one]: 100 to 1000 nM, 100 to 1000 nM and over 10000 nM.
Turning to `C[C@]1(O)C[C@@](N)(c2ccc(-c3nc4c(cc3-c3ccccc3)-n3c(n[nH]c3=O)CO4)cc2)C1` [Example 79, 7-(4-((1r,3r)-1-amino-3-hydroxy-3-methylcyclobutyl)phenyl)-8-phenyl-2,4-dihydro-1H-pyrido[2,3-b][1,2,4]triazolo[4,3-d][1,4]oxazin-1-one], the IC50 on AKT1 is at most 100 nM; at AKT2, 100 to 1000 nM; on AKT3 it was 1000 to 10000 nM.
For `COCCc1nnc2n1-c1cc(-c3ccccc3)c(-c3ccc(C4(N)CCC4)cc3)nc1OC2` [Example 121, 1-(4-(1-(2-methoxyethyl)-8-phenyl-4H-pyrido[2,3-b][1,2,4]triazolo[4,3-d][1,4]oxazin-7-yl)phenyl)cyclobutanamine], the IC50 at AKT1 was in the range of 100 to 1000 nM; at AKT2 it was 1000 to 10000 nM; at AKT3, 1000 to 10000 nM.
Take `N#CCN1C(=O)C(CCO)Oc2nc(-c3ccc(C4(N)CCC4)cc3)c(-c3ccccc3)cc21` (stereo not drawn) [Example 78]: the IC50 was 100 to 1000 nM on AKT1, 100 to 1000 nM on AKT2 and over 10000 nM at AKT3.
As to `CCN1C(=O)COc2nc(-c3ccc([C@]4(N)C[C@@H](O)C4)cc3)c(-c3ccccc3)cc21` [Example 139, 6-(4-((1s,3s)-1-amino-3-hydroxycyclobutyl)phenyl)-1-ethyl-7-phenyl-1H-pyrido[2,3-b][1,4]oxazin-2(3H)-one], the IC50 is 100 to 1000 nM on AKT1, 100 to 1000 nM at AKT2 and 1000 to 10000 nM at AKT3.
For the compound `NC(=O)c1nnc2n1-c1cc(-c3ccccc3)c(-c3ccc(C4(N)CCC4)cc3)nc1OC2` [Example 119, 7-(4-(1-aminocyclobutyl)phenyl)-8-phenyl-4H-pyrido[2,3-b][1,2,4]triazolo[4,3-d][1,4]oxazine-1-carboxamide], the IC50 was in the range of 100 to 1000 nM on AKT1, 100 to 1000 nM at AKT2 and 1000 to 10000 nM on AKT3.
Consider `CC(C)CN1C(=O)COc2nc(-c3ccc(C4(N)CCC4)cc3)c(-c3ccccc3)cc21` [Example 102, 6-(4-(1-aminocyclobutyl)phenyl)-1-isobutyl-7-phenyl-1H-pyrido[2,3-b][1,4]oxazin-2(3H)-one], for which the results for the IC50 on AKT1, on AKT2 and on AKT3 were 100 to 1000 nM, at most 100 nM and 1000 to 10000 nM, respectively.
The matching figures for `CCN1CCc2nc(-c3ccc(C4(N)CCC4)cc3)c(-c3ccccc3)cc2C1` [Example 27, 1-(4-(6-ethyl-3-phenyl-5,6,7,8-tetrahydro-1,6-naphthyridin-2-yl)phenyl)cyclobutanamine]: 1000 to 10000 nM, over 10000 nM and over 10000 nM.
For the compound `CS(=O)(=O)c1[nH]nc2c1CCc1nc(-c3ccc(C4(N)CCC4)cc3)c(-c3ccccc3)cc1-2` [Example 10, 1-(4-(3-(methylsulfonyl)-8-phenyl-4,5-dihydro-2H-pyrazolo[3,4-f]quinolin-7-yl)phenyl)cyclobutanamine], the IC50 on AKT1 is 100 to 1000 nM; at AKT2 it was 1000 to 10000 nM; at AKT3 it was over 10000 nM.
Regarding `CS(=O)(=O)CN1C(=O)COc2nc(-c3ccc(C4(N)CCC4)cc3)c(-c3ccccc3)cc21` [Example 82, 6-(4-(1-aminocyclobutyl)phenyl)-1-(methylsulfonylmethyl)-7-phenyl-1H-pyrido[2,3-b][1,4]oxazin-2(3H)-one], the values for the IC50 at AKT1, at AKT2 and at AKT3 were 1000 to 10000 nM, at most 100 nM and 1000 to 10000 nM, respectively.
`CCNC(=O)N1CCOc2nc(-c3ccc(C4(N)CCC4)cc3)c(-c3ccccc3)cc21` [Example 88, 6-(4-(1-aminocyclobutyl)phenyl)-N-ethyl-7-phenyl-2,3-dihydro-1H-pyrido[2,3-b][1,4]oxazine-1-carboxamide]: the IC50 at AKT1, at AKT2 and at AKT3 was over 10000 nM each time.
As for `NC1(c2ccc(-c3nc4c(cc3-c3ccccc3)N(C3CCOCC3)C(=O)CO4)cc2)CCC1` [Example 65, 6-(4-(1-aminocyclobutyl)phenyl)-7-phenyl-1-(tetrahydro-2H-pyran-4-yl)-1H-pyrido[2,3-b][1,4]oxazin-2(3H)-one], the IC50 is 1000 to 10000 nM at AKT1, 1000 to 10000 nM at AKT2 and over 10000 nM at AKT3.
As to `Cc1nnc2n1-c1cc(-c3ccccc3)c(-c3ccc(C4(N)CCC4)cc3)nc1OC2` [Example 63, 1-(4-(1-methyl-8-phenyl-4H-pyrido[2,3-b][1,2,4]triazolo[4,3-d][1,4]oxazin-7-yl)phenyl)cyclobutanamine], the IC50 at AKT1 was 100 to 1000 nM; on AKT2 it was 1000 to 10000 nM; on AKT3, over 10000 nM.
Take `NC1(c2ccc(-c3nc4c(cc3-c3ccccc3)N(Cc3ncc[nH]3)C(=O)CO4)cc2)CCC1` [Example 42, 1-((1H-imidazol-2-yl)methyl)-6-(4-(1-aminocyclobutyl)phenyl)-7-phenyl-1H-pyrido[2,3-b][1,4]oxazin-2(3H)-one]: the IC50 on AKT1 lay within 1000 to 10000 nM; on AKT2, 100 to 1000 nM; at AKT3 it was 1000 to 10000 nM.
In the case of `C#CCN1C(=O)COc2nc(-c3ccc(C4(N)CCC4)cc3)c(-c3ccccc3)cc21` [Example 32, 6-(4-(1-aminocyclobutyl)phenyl)-7-phenyl-1-(prop-2-yn-1-yl)-1H-pyrido[2,3-b][1,4]oxazin-2(3H)-one], the results for the IC50 at AKT1, at AKT2 and at AKT3 were 100 to 1000 nM, 100 to 1000 nM and over 10000 nM, respectively.
